Assay results reported in patent US9416144B2, “Benzoxazine oxazolidinone compound, preparation method and application thereof” (priority 2012, dated 2016).
Converted amounts (≈) assume the structure as drawn. “And” between values parts separate entries of the source, which are not always exact repeats. Identical values can stand only once. Like-named read-outs stand apart in the source and are kept apart here.

Tests used:
[1] = In vivo pharmacokinetic assays in rats (intragastric and intravenous), plasma Compound 14 by LC-MS/MS; parameters: species or system SD rats
Protocol: Two routes of administration (intragastric administration and intravenous injection) were employed.
(§1) Intragastric administration: Four healthy SD rats, male, weight 200-250 g, were dosed 15 mg/kg; the delivery volume was 10 ml/kg, prepared with 0.5% CMC-Na. The rats were fasted for 12 hrs before administration, free water-drinking. 0.3 ml of venous blood was taken from the posterior venous plexus of rats to heparinized tubes at 0.25, 0.5, 1.0, 2.0, 3.0, 4.0, 5.0, 7.0, 9.0, 24, and 48 hrs after administration, centrifuged at 3500 rpm for 10 mins to separate the plasma, which was then stored at −20° C. for test.
as §1, with “Intravenous injection: Two” for “Intragastric administration: Four”, “200˜250” for “200-250”, “5” for “15”, “DMSO, Tween 80 and deionized water.” for “0.5% CMC-Na.”, “5 min, 15 min, and” for “0.25,”
The concentration of Compound 14 in plasma was determined by liquid chromatography tandem mass spectrometry.
In accordance with the above experimental methods, the inventor has determined the in vivo pharmacokinetic properties of phosphate (ester) disodium salt 37 of Compound 14 in rats.

[2] = system: methicillin-resistant Staphylococcus aureus ATCC 33591 (MRSA); assay: In vivo antibacterial activity, mice with systemic infection by MRSA, survival at 48 hours; conditions: female ICR mice, systemic infection (2.35 × 10^7 CFU/mice, intraperitoneal), oral administration 1 hour after infection
Protocol: Test strains: the strain used to infect animals was methicillin-resistant Staphylococcus aureus ATCC 33591 (MRSA).
Experimental animals: female ICR mice, age: 4 to 5 weeks, weight 20 to 22 grams, available from Shanghai Sippr BK Experimental Animal Co., Ltd., qualification certificate No.: 2008001625863.
Experimental method: Mice were randomly divided into groups. There were 4 dosage groups for each subject drug each administration manner: 2.5, 5, 10 and 20 mg/kg, 6 mice for each dosage group. Furthermore, a gastric mucin vehicle group was used as negative control for each administration manner. Mice were intraperitoneally injected with 10^7-10^8 CFU/mL of the bacterial suspension, 0.5 ml/mouse, and at 1 hour after infection the mice were orally administered the corresponding drugs for treatment, dosing volume 0.2 mL/20 g. This research program complied with the provisions and relevant regulations of National Laboratory Animal Management and Welfare.

[3] = In vivo pharmacokinetic assays in rats (intragastric and intravenous), plasma Compound 14 by LC-MS/MS; parameters: species or system SD rats; conditions: for CLz: parameters of 14 in rats after 10 mg/kg Compound 37 intravenous injection
Enterococcus (6 strains) = assay: In vitro antibacterial activity, MIC by agar double dilution method; format: cell-based; conditions: clinical isolates, 35° C. 16 hrs
Method in brief: (§2)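 Clinical isolates from the Nanjing region, spotted at about 10^6 CFU/mL onto MIT agar containing drug at 64 down to 0.031 μg/mL in 2-fold steps. Plates incubated 16 hrs at 35° C.; MIC is the lowest concentration with no growth.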

[4] = system: Staphylococcus aureus resistant strains (6 strains); assay: as above; format: cell-based; conditions: clinical isolates
Method in brief: as §2

[5] = system: Staphylococcus aureus sensitive strains (5 strains); assay: as above; format: cell-based; conditions: clinical isolates
Method in brief: as §2

[6] = system: Staphylococcus epidermidis resistant strains (5 strains); assay: as above; format: cell-based; conditions: clinical isolates
Method in brief: as §2

[7] = system: Staphylococcus epidermidis sensitive strains (5 strains); assay: as above; format: cell-based; conditions: clinical isolates
Method in brief: as §2

[8] = system: Streptococcus pneumoniae resistant strains (4 strains); assay: as above; format: cell-based; conditions: clinical isolates
Method in brief: as §2

[9] = system: LREFA, linezolid-resistant strain of Enterococcus faecium (3 strains); assay: In vitro antibacterial activity on linezolid-resistant strains, MIC in MHB broth, 96-well plate; format: cell-based; conditions: LREFA (3 strains)
Protocol: (§3) The stock solution of the subject drugs in DMSO was 10 mg/mL. MHA (agar) and MHB (broth) were both prepared according to the manufacturer's requirements.
(§4) Double dilution of drugs: under aseptic operation, 12.8 μL of liquid drug was added into the first well of a 96-well plate, and then added 27.2 μL DMSO and mixed. The 2nd to 12nd wells were all added 20 μL DMSO. 20 μL was taken from the first well to the second well and mixed up. 20 μL was taken from the second well to the third well, which was repeated till the 11st well, from which was taken 20 μL and discarded. The 12nd well only had 20 μL of DMSO as the growth control. Then 180 μL of sterile water was added to each well and mixed up. The drug used as control was prepared by the same method.
(§5) The solutions with different concentrations of antibacterial drugs after the double dilution and DMSO were added into a sterile 96-well plate separately, 10 μL per well, ready for use.
(§6) Single colonies were picked from the MHA plates into 5 ml of sterile saline and mixed up.
(§7) Light transmittance was adjusted to 80% with a spectrophotometer. After being diluted by 1:200 with MHB, 90 μL of such bacteria liquid was added into each of the wells which already had 10 μL of the drug liquid, mixed up, and incubated in a regular biochemical incubator at 35° C. for 20 hrs before the results were read out. At this time, the drug concentration in the 1st to 12nd wells was 32, 16, 8, 4, 2, 1, 0.5, 0.25, 0.125, 0.0625, 0.03125, 0 μg/mL, respectively.
(§8) Two parallel groups were set up for the same diluted concentration of a drug.
(§9) 4) Results Reading and Judgment: Refer to the Standard Recommended by the CLSI, 2010 Edition.
(§10) The positive control group was LZ (linezolid, brand name Zyvox, approved by the FDA in 2000 to be firstly sold in the United States, which is the first and also the only one of oxazolidinone antibacterial drugs allowed to enter clinical application).

[10] = system: LREFL, linezolid-resistant strain of Enterococcus faecalis (3 strains); assay: as above; format: cell-based; conditions: LREFL (3 strains)
Protocol: as §3, §4, §5, §6, §7, §8, §9, §10

[11] = system: LRSA, linezolid-resistant strain of Staphylococcus aureus (3 strains); assay: as above; format: cell-based; conditions: LRSA (3 strains)
Protocol: as §3, §4, §5, §6, §7, §8, §9, §10

[12] = system: LRSE, linezolid-resistant strain of Staphylococcus epidermidis (1 strain); assay: as above; format: cell-based; conditions: LRSE (1 strain)
Protocol: as §3, §4, §5, §6, §7, §8, §9, §10

[13] = system: S.a. ATCC 29213 (standard strain of Staphylococcus aureus); assay: as above; format: cell-based; conditions: ATCC29213, 35° C. 20 hrs
Protocol: as §3, §4, §5, §6, §7, §8, §9, §10

Compound | plasma exposure of 14 of the group receiving 37 relative to the group receiving 14 ([1]; intragastric administration, upon measurement normalization) [%] | plasma exposure of intravenous injection relative to that of Compound 14 ([1]; intravenous injection, prodrug 37 vs Compound 14) [times] | oral plasma exposure relative to that of Compound 14 ([1]; oral, prodrug 37 vs Compound 14) [times] | ED50 [2] [mg/kg] | CLz ([3]; average value) [mL/min/kg] | CLz ([3]; individual animals No. 5-7) | plasma exposure of compound 14 of the group receiving 37 relative to the group receiving 14 ([3]; rats, intravenous injection, upon measurement normalization) [%] | MIC (Enterococcus (6 strains)) [µg/mL] | MIC [4] [µg/mL] | MIC [5] [µg/mL] | MIC [6] [µg/mL] | MIC [7] [µg/mL] | MIC [8] [µg/mL] | MIC [9] [µg/mL] | MIC [10] [µg/mL] | MIC [11] [µg/mL] | MIC [12] [µg/mL] | MIC [13] [µg/mL] | ED50 ([2]; Staphylococcus aureus, read-out: ED50) [mg/kg]
CN1CC(c2ccc(-c3ccc4c(c3)OC[C@H]3[C@H](COP(=O)([O-])[O-])OC(=O)N43)cn2)OC1=O.[Na+].[Na+] (stereo partly shown) [Compound 37] | 157 | 1.34 | 1.5 | 5.00 | 40.3 | 41.3 mL/min/kg and 35.7 mL/min/kg and 44 mL/min/kg | 134 |  |  |  |  |  |  |  |  |  |  |  | 
CC(=O)NC[C@H]1CN(c2ccc(N3CCOCC3)c(F)c2)C(=O)O1 [LZ, linezolid, reference compound] |  |  |  |  |  |  |  | 1 to 2 (≈ 2.96 to 5.93 µM) | 1 to 2 (≈ 2.96 to 5.93 µM) | 1 to 2 (≈ 2.96 to 5.93 µM) | 1 to 2 (≈ 2.96 to 5.93 µM) | 1 (≈ 2.96 µM) | 2 (≈ 5.93 µM) | 8 to 16 (≈ 23.7 to 47.4 µM) | 8 to 16 (≈ 23.7 to 47.4 µM) | > 32 | 16 (≈ 47.4 µM) | 1 (≈ 2.96 µM) | 9.87
